According to patent US7488738B2, “Aminophenoxyacetic acid derivatives and pharmaceutical composition containing thereof” (Asubio Pharma Co., Ltd., priority 1998, dated 2009):

Tested on: cells of cerebral cortex
Experiment: Cytoprotective effect against glutamate induced cell death (MTT)
Assay type: cell-based, rats of Wister strain
Settings: compound 1 μM added 24 h before 1 mM glutamate, fetal rat cerebral cortex cells, control group = 100%
Description: Biological Test 1: Cytoprotective Effect Against Glutamate Induced Cell Death
In accordance with the method of M. P. Mattoson [M. P. Mattoson, Brain Res. Rev., 13, 179 (1988)], brain of 18-days fetus rats of Wister strain were taken out. Then, cells of cerebral cortex (4×10^5 cells/ml) were seeded on poly-L-lysine coated 96 wells flat bottom plate (Sumitomo Bakelite Co., Ltd.) in concentration of 4×10^4 cells/each well. After 48 hours of incubation, 1 μM of test compounds were added, then after further 24 hours, 1 mM of glutamate were further added for inducing the cell injury. 12 hours after adding glutamate, MTT [3-(4,5-dimethylthiazol)-2,5-diphenyltetrazolium bromide] was added and incubated for 6 hours.
After incubation, 200 μl of dimethy sulfoxide was added to each wells, and the amounts of reduced MTT were calorimetrically analyzed by Micro ELISA Reader using 570 nm of main-wavelength and 650 nm of sub-wavelength.
The effect of the test compounds was determined as the survival rate of living cells (%) according to the following equation: Survival rate of living cells (%)=[(test compound group−glutamate treated group)÷(control group−glutamate treated group)]×100
That is, the survival rate of living cells after incubation of the control group was converted to 100%, and the survival data of living cells of the tested compounds was shown in Table II.

SMILES	Survival Rate (%) (Compound: 1 μM)
Cc1c(C)c(OCC(=O)N(C)C2CCN(CC(=O)Nc3cc(Cl)c(N)cc3Cl)CC2)c(Cl)c(C)c1N [Compound 92, 2-(4-Amino-2-chloro-3,5,6-trimethylphenoxy)-N-[1-(2-(4-amino-2,5-dichloro)anilino-2-oxyethyl)-4-piperidinyl]-N-methylacetamide]	66%
Cc1cc(OC(C)C(=O)N(C)C2CCN(CC(O)COc3ccccc3)CC2)c(C)c(C)c1N (stereo not drawn) [Compound 103, 2-(4-Amino-2,3,5-trimethylphenoxy)-N-methyl-N-[1-(2-hydroxy-3-phenoxy)propyl-4-piperidinyl]propamide]	180%
Cc1cc(OC(C)(C)C(=O)N(C)C2CCN(C/C=C/c3ccccc3)CC2)c(C)c(C)c1N [Compound 67, 2-(4-Amino-2,3,5-trimethylphenoxy)-2-methyl-N-methyl-N-{1-(3-phenyl-2-(E)-propenyl)-4-piperidinyl]propamide]	69%
Cc1cc(OC(C)C(=O)NC2CCN(C[C@@H]3C[C@H]3c3ccccc3)CC2)c(C)c(C)c1N (relative stereo) [Compound 106, 2-(4-Amino-2,3,5-trimethylphenoxy)-N-[1-(trans-2-phenyl-1-cyclopropylmethyl)-4-piperidinyl]propamide]	151%
Cc1cc(OC(C)(C)C(=O)N(C)C2CCN(CC(=O)Nc3c(C)cccc3C)CC2)c(C)c(C)c1N [Compound 50, 2-(4-Amino-2,3,5-trimethylphenoxy)-2-methyl-N-[1-(2-(2,6-dimethyl)anilino-2-oxyethyl)-4-piperidinyl]-N-methyl-propamide]	54%
Cc1cc(OCC(=O)NC2CCN(CCc3ccccc3)CC2)c(C)c(C)c1N [Compound 97, 2-(4-Amino-2,3,5-trimethylphenoxy)-N-(1-(2-phenethyl)-4-piperidinyl)acetamide]	119%
Cc1c(C)c(NCC(=O)N(C)C2CCN(Cc3ccc(C(N)=O)cc3)CC2)c(C)c(C)c1N [Compound 116]	59%
Cc1cc(NC(=O)CN2CCC(N(C)C(=O)C(C)(C)Oc3cc(C)c(N)c(C)c3C)CC2)c(C)cc1O [Compound 107, 2-(4-Amino-2,3,5-trimethylphenoxy)-2-methyl-N-[1-(2-(2,5-dimethyl-4-hydroxy)anilino-2-oxyethyl]-4-piperidinyl]-N-methylpropamide]	227%
Cc1cc(OC(C)C(=O)NC2CCN(CC3(c4ccccc4)CC3)CC2)c(C)c(C)c1N (stereo not drawn) [Compound 101, 2-(4-Amino-2,3,5-trimethylphenoxy)-N-[1-(1-phenyl-1-cyclopropane)methyl-4-piperidinyl]propamide]	138%
Cc1cc(OC(C)C(=O)N(C)C2CCN(CC3(c4ccccc4)CC3)CC2)c(C)c(C)c1N (stereo not drawn) [Compound 90, 2-(4-Amino-2,3,5-trimethylphenoxy)-N-methyl-N-[1-(1-phenyl-1-cyclopropane)methyl-4-piperidinyl]propamide]	149%
Cc1c(C)c(NCC(=O)N(C)C2CCN(CC(=O)Nc3ccccc3)CC2)c(C)c(C)c1N [Compound 41, 2-(4-Amino-2,3,5,6-tetramethylanilino)-N-[1-(2-anilino-2-oxyethyl)-4-piperidinyl]-N-methylacetamide]	86%
CCN(C(=O)C(C)Oc1cc(C)c(N)c(C)c1C)C1CCN(CC(=O)Nc2ccccc2)CC1 (stereo not drawn) [Compound 75, 2-(4-Amino-2,3,5-trimethylphenoxy)-N-[1-(2-anilino-2-oxyethyl)-4-piperidinyl]-N-ethylpropamide]	96%
Cc1cc(OCC(=O)N(C)C2CCN(CC(=O)Nc3ccccc3C(C)(C)C)CC2)c(C)c(C)c1N [Compound 46, 2-(4-Amino-2,3,5-trimethylphenoxy)-N-[1-(2-(2-tert-butyl)anilino-2-oxyethyl)-4-piperidinyl]-N-methylacetamide]	101%
Cc1cc(OC(C)(C)C(=O)N(C)C2CCN(CC(=O)Nc3cccc(Cl)c3C)CC2)c(C)c(C)c1N [Compound 48, 2-(4-Amino-2,3,5-trimethylphenoxy)-2-methyl-N-[1-(2-(3-chloro-2-methyl)anilino-2-oxyethyl)-4-piperidinyl]-N-methylpropamide]	207%
Cc1cc(OC(C)C(=O)NC2CCN(C/C=C/c3ccccc3)CC2)c(C)c(C)c1N (stereo not drawn) [Compound 84, 2-(4-Amino-2,3,5-trimethylphenoxy)-N-[1-(3-phenyl-2-(E)-propenyl)-4-piperidinyl]propamide]	87%
Cc1c(C)c(N(C)CC(=O)N(C)C2CCN(CCc3ccccc3)CC2)c(C)c(C)c1N [Compound 120, 2-(4-Amino-2,3,5,6-tetramethyl-N-methylanilino)-N-methyl-N-[1-(2-phenethyl)-4-piperidinyl]acetamide]	88%
Cc1c(C)c(NCC(=O)N(C)C2CCN(CC3(c4ccccc4)CC3)CC2)c(C)c(C)c1N [Compound 70, 2-(4-Amino-2,3,5,6-tetramethylanilino)-N-methyl-N-[1-(1-phenyl-1-cyclopropane)methyl-4-piperidinyl]acetamide]	88%
CCN(C(=O)CNc1c(C)c(C)c(N)c(C)c1C)C1CCN(CC2(c3ccccc3)CC2)CC1 [Compound 88, 2-(4-Amino-2,3,5,6-tetramethylanilino)-N-ethyl-N-[1-(1-phenyl-1-cyclopropane)methyl-4-piperidinyl]acetamide]	81%
Cc1cc(OC(C)(C)C(=O)N(C)C2CCN(CC(=O)NC3(c4ccccc4)CC3)CC2)c(C)c(C)c1N [Compound 69, 2-(4-Amino-2,3,5-trimethylphenoxy)-2-methyl-N-methyl-N-[1-(2-(1-phenylcyclopropyl)amino-2-oxyethyl)-4-piperidinyl]propamide]	68%

Same assay, conditions: compound 1 μM added 24 h before 1 mM glutamate, fetal rat cerebral cortex cells, control group = 100%, read-out: Survival Rate (%) (Compound: 1 μM)

SMILES	viability at 1 µM
Cc1cc(C)c(NCC(=O)N(C)C2CCN(Cc3ccccc3)CC2)c(C)c1N [Compound 131, 2-(3-Amino-2,4,6-trimethylanilino)-N-(1-benzyl-4-piperidinyl)-N-methylacetamide]	65%
CCN(C(=O)COc1cc(C)c(N)c(C)c1C)C1CCN(C/C=C/c2ccccc2)CC1 [Compound 74, 2-(4-Amino-2,3,5-trimethylphenoxy)-N-ethyl-N-[1-(3-phenyl-2-(E)-propenyl)-4-piperidinyl]acetamide]	87%
Cc1cc(OCC(=O)N(C)C2CCN(Cc3ccc4ccccc4n3)CC2)c(C)c(C)c1N [Compound 44, 2-(4-Amino-2,3,5-trimethylphenoxy)-N-methyl-N-[1-(2-quinolylmethyl)-4-piperidinyl]acetamide]	93%
Cc1cc(OCC(=O)N(C)C2CCN(C/C=C/c3ccccc3)CC2)c(C)c(C)c1N [Compound 53, 2-(4-Amino-2,3,5-trimethylphenoxy)-N-methyl-N-[1-(3-phenyl-2-(E)-propenyl)-4-piperidinyl]acetamide]	144%
Cc1cc(C)c(N(C)C)c(C)c1NCC(=O)N(C)C1CCN(C(=O)c2ccccc2)CC1 [Compound 135, N-(1-benzoyl-4-piperidinyl)-2-(3-dimethylamino-2,4,6-trimethylanilino)-N-methylacetamide]	76%
